Common to all, as to format: in vivo
The subject of test [1] is ducksalad (Heteranthera limosa). The experiment in a line: Test C flooded paddy test: ducksalad. Conditions: scale 0 to 100 (0 no effect, 100 complete control); for pest or weed control at 62 g/ha / pest or weed control at 250 g/ha / pest or weed control at 125 g/ha: Heteranthera limosa, read-out: Plant response rating, Ducksalad. In outline:
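Plants were grown to the 2-leaf stage, pots flooded to 3 cm above soil, and test compounds applied directly to the paddy water, with that depth held throughout. After 13 to 15 days in a greenhouse, injury was visually rated against controls on a 0 (no effect) to 100 (complete control) scale.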

Test [2] has as its system bromegrass, downy (downy bromegrass, Bromus tectorum). In words: Test D pre-/postemergence: bromegrass, downy. From the text:
(§1) Seeds of plant species selected from bluegrass (annual bluegrass, Poa annua), blackgrass (Alopecurus myosuroides), canarygrass (Phalaris minor), chickweed (common chickweed, Stellaria media), galium (catchweed bedstraw, Galium aparine), bromegrass, downy (downy bromegrass, Bromus tectorum), field poppy (Papaver rhoeas), field violet (Viola arvensis), foxtail, green (green foxtail, Setaria viridis), deadnettle (henbit deadnettle, Lamium amplexicaule), ryegrass, Italian (Italian ryegrass, Lolium multiflorum), kochia (Kochia scoparia), lambsquarters (Chenopodium album), oilseed rape (Brassica napus), pigweed (Amaranthus retroflexus), Russian thistle (Salsola iberica), chamomile (scentless chamomile, Matricaria inodora), speedwell (bird's-eye speedwell, Veronica persica), barley, spring (spring barley, Hordeum vulgare), wheat, spring (spring wheat, Triticum aestivum), buckwheat, wild (wild buckwheat, Polygonum convolvulus), mustard, wild (wild mustard, Sinapis arvensis), oat, wild (wild oat, Avena fatua), radish, wild (wild radish, Raphanus raphanistrum), windgrass (Apera spica-venti), barley, winter (winter barley, Hordeum vulgare), and wheat, winter (winter wheat, Triticum aestivum) were planted into a silt loam soil and treated preemergence with test chemicals formulated in a non-phytotoxic solvent mixture which included a surfactant. At the same time, these same crop and weed species were planted in pots containing the planting medium comprising spaghnum peat moss, vermiculite, wetting agent and starter nutrients and treated with postemergence applications of the test chemicals formulated in the same manner. Plants ranged in height from 2 to 18 cm (1- to 4-leaf stage).
(§2) Treated plants and controls were maintained in a controlled growth environment for 14 to 21 days after which time all species were compared to controls and visually evaluated. Plant response ratings, summarized in Table D, are based on a scale of 0 to 100 where 0 is no effect and 100 is complete control. A dash (-) response means no test result.

Another test deals with kochia (Kochia scoparia). The experiment in a line: Test D pre-/postemergence: kochia.
Excerpt: as §1, §2

The test system of test [3] is buckwheat, wild (wild buckwheat, Polygonum convolvulus). In words: Test D pre-/postemergence: buckwheat, wild.
Excerpt: as §1, §2

[4] abbreviates: Flood (flooded paddy test), 125 g ai/ha, visual rating after 13 to 15 days.
Setting [5] is: Flood (flooded paddy test), 250 g ai/ha, visual rating after 13 to 15 days.
[6] abbreviates: Postemergence, 31 g ai/ha, scale 0 to 100 (0 no effect, 100 complete control).
Setting [7] is: Postemergence, 62 g ai/ha, scale 0 to 100 (0 no effect, 100 complete control).
[8] abbreviates: Postemergence, 125 g ai/ha, scale 0 to 100, 0 no effect, 100 complete control.
The mark [9] stands for this setting: Postemergence, 250 g ai/ha, scale 0 to 100 (0 no effect, 100 complete control).
[10] abbreviates: Postemergence, 16 g ai/ha, scale 0 to 100.
[11] abbreviates: Preemergence, 31 g ai/ha, scale 0 to 100, 0 no effect, 100 complete control.
The mark [12] stands for this setting: Preemergence, 62 g ai/ha, scale 0 to 100.
Where [13] appears, read: Preemergence, 125 g ai/ha, scale 0 to 100.
Setting [14] is: Preemergence, 250 g ai/ha, scale 0 to 100.
The mark [15] stands for this setting: Flood (flooded paddy test), 62 g ai/ha, visual rating after 13 to 15 days.
Where [16] appears, read: Preemergence, 16 g ai/ha, scale 0 to 100, 0 no effect, 100 complete control.

Read-outs that look alike come from different tables or passages of the source.

Take `Cc1nn(-c2ccc(C(F)(F)F)cn2)nc1Cc1cccc(C(F)(F)F)c1` [Compound 106]: the “Plant response rating, Ducksalad” value in test [1] (setting [4]) turned out to be 70; in test [1] (setting [5]), 70; in test [1] (Flood, 31 g ai/ha), 0; in test [1] (Flood, 62 g ai/ha), 60. Also, the “Plant response rating: Bromegrass, Downy” value in test [2] (setting [6]) was found to be 0; in test [2] (setting [7]), 10; in test [2] (setting [8]), 15; in test [2] (setting [9]), 15. Also, the “Plant response rating, Bromegrass, Downy” value in test [2] (setting [10]), in test [2] (setting [11]), in test [2] (setting [12]), in test [2] (setting [13]) and in test [2] (setting [14]) was 0 in each case. In addition, the “Plant response rating: Kochia” value in the test on kochia (Kochia scoparia) (setting [6]) was 60; with kochia (Kochia scoparia) (setting [7]), 70; in the test on kochia (Kochia scoparia) (setting [8]), 95; with kochia (Kochia scoparia) (setting [9]), 100. Further, the “Plant response rating, Kochia” value in the test with kochia (Kochia scoparia) (setting [10]) is listed as 60; in the test on kochia (Kochia scoparia) (setting [11]), 0; with kochia (Kochia scoparia) (setting [12]), 0; in the test with kochia (Kochia scoparia) (setting [13]) it was 30; in the test on kochia (Kochia scoparia) (setting [14]), 30. Further, the “Plant response rating: Buckwheat, Wild” value was determined as 0 in test [3] (setting [6]), 10 in test [3] (setting [7]), 10 in test [3] (setting [8]) and 100 in test [3] (setting [9]). Besides, the “Plant response rating, Buckwheat, Wild” value in test [3] (setting [10]) turned out to be 0; in test [3] (setting [11]), 50; in test [3] (setting [12]), 100; in test [3] (setting [13]), 100; in test [3] (setting [14]) it was 100.

As for `Cc1nn(-c2ccc(C(F)(F)F)cn2)nc1Oc1ccnc(C(F)(F)F)c1` [Compound 23], the “Plant response rating, Ducksalad” value in test [1] (setting [15]) is 60; in test [1] (setting [4]), 60; in test [1] (setting [5]) it was 85; in test [1] (Flood, 31 g ai/ha) it was 50. Besides, the “Plant response rating: Bromegrass, Downy” value in test [2] (setting [6]) was 10; in test [2] (setting [7]), 15; in test [2] (setting [8]), 20; in test [2] (setting [9]), 25. In addition, the “Plant response rating, Bromegrass, Downy” value in test [2] (setting [10]) was 0. The “Plant response rating: Kochia” value in the test with kochia (Kochia scoparia) (setting [6]) is recorded as 80; in the test with kochia (Kochia scoparia) (setting [7]), 85; with kochia (Kochia scoparia) (setting [8]), 90; in the test with kochia (Kochia scoparia) (setting [9]), 95. For the same molecule, in the test with kochia (Kochia scoparia) (setting [10]), the “Plant response rating, Kochia” value is on record as 20. In addition, the “Plant response rating: Buckwheat, Wild” value in test [3] (setting [6]) is recorded as 25; in test [3] (setting [7]) it was 35; in test [3] (setting [8]), 40; in test [3] (setting [9]), 75. Also, the “Plant response rating, Buckwheat, Wild” value in test [3] (setting [10]) is listed as 20.

On to `Cc1nn(-c2ccc(F)c(C(F)(F)F)c2)nc1Cc1ccnc(C(F)(F)F)c1` [Compound 156], for which the “Plant response rating: Bromegrass, Downy” value in test [2] (setting [6]) is 10; in test [2] (setting [7]) it was 15; in test [2] (setting [8]), 35. In addition, the “Plant response rating, Bromegrass, Downy” value is recorded as 10 in test [2] (setting [10]); 0 in test [2] (setting [16]); 5 in test [2] (setting [11]); 20 in test [2] (setting [12]); 95 in test [2] (setting [13]). The “Plant response rating: Kochia” value in the test on kochia (Kochia scoparia) (setting [6]) stood at 80; in the test with kochia (Kochia scoparia) (setting [7]), 95; in the test with kochia (Kochia scoparia) (setting [8]) it was 90. For the same molecule, the “Plant response rating, Kochia” value is listed as 75 with kochia (Kochia scoparia) (setting [10]); 10 in the test with kochia (Kochia scoparia) (setting [16]); 30 in the test on kochia (Kochia scoparia) (setting [11]); 65 in the test with kochia (Kochia scoparia) (setting [12]); 80 in the test with kochia (Kochia scoparia) (setting [13]). For the same molecule, the “Plant response rating: Buckwheat, Wild” value in test [3] (setting [6]) is listed as 75; in test [3] (setting [7]), 80; in test [3] (setting [8]), 85. Also, the “Plant response rating, Buckwheat, Wild” value in test [3] (setting [10]) worked out at 70; in test [3] (setting [16]), 0; in test [3] (setting [11]), 50; in test [3] (setting [12]), 65; in test [3] (setting [13]), 100.

Turning to `Cc1nn(-c2ccc(C(F)(F)F)cc2)nc1Oc1csc(C(F)(F)F)c1` [Compound 1, 4-methyl-2-[4-(trifluoromethyl)phenyl]-5-[[5-(trifluoromethyl)-3-thienyl]oxy]-2H-1,2,3-triazole], the pest or weed control at 62 g/ha in test [1] (setting [15]) is 0%. For the same molecule, the pest or weed control at 250 g/ha in test [1] (setting [5]) came to 0%.

Regarding `FCc1nn(-c2ccc(C(F)(F)F)cc2)nc1Oc1cccc(OC(F)(F)F)c1` [Compound 116, 4-(fluoromethyl)-5-[3-(trifluoromethoxy)phenoxy]-2-[4-(trifluoromethyl)phenyl]-2H-1,2,3-triazole], the pest or weed control at 125 g/ha in test [1] (setting [4]) is 30%. In test [1] (setting [5]), the pest or weed control at 250 g/ha came out at 50%. Moreover, the pest or weed control at 62 g/ha in test [1] (Flood, 62 g ai/ha) was found to be 0%.

Turning to `COCc1nn(-c2ccc(C(F)(F)F)cc2)nc1Oc1cccc(OC(F)(F)F)c1` [Compound 115, 4-(methoxymethyl)-5-[3-(trifluoromethoxy)phenoxy]-2-[4-(trifluoromethyl)phenyl]-2H-1,2,3-triazole], in test [1] (setting [4]), the pest or weed control at 125 g/ha was 0%. Moreover, in test [1] (setting [5]), the pest or weed control at 250 g/ha is 20%. Further, the pest or weed control at 62 g/ha in test [1] (Flood, 62 g ai/ha) is 0%.

Consider `COc1nn(-c2ccc(C(F)(F)F)cc2)nc1Cc1ccnc(C(F)F)c1` [Compound 138], for which the “Plant response rating: Bromegrass, Downy” value in test [2] (setting [6]) is 20; in test [2] (setting [7]), 30; in test [2] (setting [8]), 40; in test [2] (setting [9]), 50. The “Plant response rating, Bromegrass, Downy” value in test [2] (setting [10]) amounted to 10. Besides, the “Plant response rating: Kochia” value turned out to be 95 in the test with kochia (Kochia scoparia) (setting [6]), 100 with kochia (Kochia scoparia) (setting [7]), 100 with kochia (Kochia scoparia) (setting [8]) and 100 in the test on kochia (Kochia scoparia) (setting [9]). For the same molecule, in the test with kochia (Kochia scoparia) (setting [10]), the “Plant response rating, Kochia” value was found to be 95. Further, the “Plant response rating: Buckwheat, Wild” value is 40 in test [3] (setting [6]), 50 in test [3] (setting [7]), 80 in test [3] (setting [8]) and 80 in test [3] (setting [9]). For the same molecule, the “Plant response rating, Buckwheat, Wild” value in test [3] (setting [10]) is reported as 40.

(Values after patent US9302999B2, “Substituted triazoles as herbicides” (E. I. DU PONT DE NEMOURS AND COMPANY, priority 2012, dated 2016).)
